What was measured:
Vero [1] = test: Antiproliferative activity against African green monkey Vero cells after 72 hrs by BrdUrd incorporation assay; assay type: cell-based; conditions: Chlorocebus sabaeus
[2] = Antiproliferative activity against African green monkey Vero cells at 50 ug/ml after 72 hrs by BrdUrd incorporation assay; assay type: cell-based; conditions: chlorocebus sabaeus, read-out: GI
TOV112D [3] = test: Antiproliferative activity against human TOV112D cells at 50 ug/ml after 24 hrs by BrdUrd incorporation assay; assay type: functional; conditions: read-out: GI
A549 [4] = test: Antiproliferative activity against human A549 cells after 72 hrs by BrdUrd incorporation assay; assay type: functional, cell-based; conditions: A549, 72 h
HeLa [5] = test: Antiproliferative activity against human HeLa cells at 50 ug/ml after 48 hrs by BrdUrd incorporation assay; assay type: functional; conditions: read-out: GI
A549 [6] = test: Antiproliferative activity against human A549 cells at 50 ug/ml after 24 hrs by BrdUrd incorporation assay; assay type: functional; conditions: A549, 24 h, read-out: GI
TOV112D [7] = test: Antiproliferative activity against human TOV112D cells after 48 hrs by BrdUrd incorporation assay; assay type: functional, cell-based
TOV112D [8] = test: Antiproliferative activity against human TOV112D cells at 50 ug/ml after 72 hrs by BrdUrd incorporation assay; assay type: functional; conditions: read-out: GI
A549 [9] = test: Antiproliferative activity against human A549 cells after 24 hrs by BrdUrd incorporation assay; assay type: functional, cell-based; conditions: A549, 24 h
TOV112D [10] = test: Antiproliferative activity against human TOV112D cells after 72 hrs by BrdUrd incorporation assay; assay type: functional, cell-based
HeLa [11] = test: Antiproliferative activity against human HeLa cells after 72 hrs by BrdUrd incorporation assay; assay type: functional, cell-based
A549 [12] = test: Antiproliferative activity against human A549 cells after 48 hrs by BrdUrd incorporation assay; assay type: functional, cell-based; conditions: A549, 48 h
T47D [13] = test: Antiproliferative activity against human T47D cells at 50 ug/ml after 48 hrs by BrdUrd incorporation assay; assay type: functional; conditions: read-out: GI
T47D [14] = test: Antiproliferative activity against human T47D cells after 24 hrs by BrdUrd incorporation assay; assay type: functional, cell-based
HeLa [15] = test: Antiproliferative activity against human HeLa cells after 48 hrs by BrdUrd incorporation assay; assay type: functional, cell-based
A549 [16] = test: Antiproliferative activity against human A549 cells at 50 ug/ml after 48 hrs by BrdUrd incorporation assay; assay type: functional; conditions: A549, 48 h, read-out: GI
Vero [17] = test: Antiproliferative activity against African green monkey Vero cells after 24 hrs by BrdUrd incorporation assay; assay type: cell-based; conditions: chlorocebus sabaeus
A549 [18] = test: Antiproliferative activity against human A549 cells at 50 ug/ml after 72 hrs by BrdUrd incorporation assay; assay type: functional; conditions: A549, 72 h, read-out: GI
HeLa [19] = test: Antiproliferative activity against human HeLa cells at 50 ug/ml after 72 hrs by BrdUrd incorporation assay; assay type: functional; conditions: read-out: GI
TOV112D [20] = test: Antiproliferative activity against human TOV112D cells after 24 hrs by BrdUrd incorporation assay; assay type: functional, cell-based
T47D [21] = test: Antiproliferative activity against human T47D cells at 50 ug/ml after 72 hrs by BrdUrd incorporation assay; assay type: functional; conditions: read-out: GI
T47D [22] = test: Antiproliferative activity against human T47D cells after 72 hrs by BrdUrd incorporation assay; assay type: functional, cell-based
[23] = Antiproliferative activity against African green monkey Vero cells at 50 ug/ml after 48 hrs by BrdUrd incorporation assay; assay type: cell-based; conditions: chlorocebus sabaeus, read-out: GI
T47D [24] = test: Antiproliferative activity against human T47D cells at 50 ug/ml after 24 hrs by BrdUrd incorporation assay; assay type: functional; conditions: read-out: GI
HeLa [25] = test: Antiproliferative activity against human HeLa cells at 50 ug/ml after 24 hrs by BrdUrd incorporation assay; assay type: functional; conditions: read-out: GI
T47D [26] = test: Antiproliferative activity against human T47D cells after 48 hrs by BrdUrd incorporation assay; assay type: functional, cell-based
Vero [27] = test: Antiproliferative activity against African green monkey Vero cells at 50 ug/ml after 24 hrs by BrdUrd incorporation assay; assay type: cell-based; conditions: chlorocebus sabaeus
Vero [28] = test: Antiproliferative activity against African green monkey Vero cells after 48 hrs by BrdUrd incorporation assay; assay type: cell-based; conditions: Chlorocebus sabaeus
TOV112D [29] = test: Antiproliferative activity against human TOV112D cells at 50 ug/ml after 48 hrs by BrdUrd incorporation assay; assay type: functional; conditions: read-out: GI
HeLa [30] = test: Antiproliferative activity against human HeLa cells after 24 hrs by BrdUrd incorporation assay; assay type: functional, cell-based

Compound	IC50 (Vero [1])	inhibition at 72 h, 50 ug/ml [2]	inhibition of growth at 50 µg/mL (TOV112D [3])	IC50 (A549 [4])	inhibition of growth at 50 µg/mL (HeLa [5])	inhibition of growth at 50 µg/mL (A549 [6])	IC50 (TOV112D [7])	inhibition of growth at 50 µg/mL (TOV112D [8])	IC50 (A549 [9])	IC50 (TOV112D [10])	IC50 (HeLa [11])	IC50 (A549 [12])	inhibition of growth at 50 µg/mL (T47D [13])	IC50 (T47D [14])	IC50 (HeLa [15])	inhibition of growth at 50 µg/mL (A549 [16])	inhibition of growth at 50 µg/mL (HeLa [19])	inhibition of growth at 50 µg/mL (T47D [21])	inhibition of growth at 50 µg/mL (T47D [24])	inhibition of growth at 50 µg/mL (HeLa [25])	other results
O=c1c(-c2cccs2)nnc2n1CCN2c1ccccc1Cl	100 µM	75%	80%	80 µM	80%	75%	80 µM	100%	100 µM	80 µM	80 µM	80 µM	100%	80 µM	90 µM	95%	90%	100%	95%	50%	IC50 (Vero [17]): 150 µM; inhibition of growth at 50 µg/mL (A549 [18]): 95%; IC50 (TOV112D [20]): 90 µM; IC50 (T47D [22]): 80 µM; inhibition at 48 h, 50 ug/ml [23]: 60%; IC50 (T47D [26]): 80 µM; growth inhibition (GI) (Vero [27]): 50%; IC50 (Vero [28]): 130 µM; inhibition of growth at 50 µg/mL (TOV112D [29]): 95%; IC50 (HeLa [30]): 150 µM
COc1ccccc1N1CCn2c1nnc(-c1ccco1)c2=O	–	–	–	–	35%	–	–	–	–	–	–	–	30%	–	–	–	80%	70%	0%	25%	–
O=c1c(-c2ccco2)nnc2n1CCN2c1ccccc1	–	–	–	–	75%	–	–	–	–	–	–	–	85%	–	–	–	100%	95%	50%	50%	–
Cc1cccc(N2CCn3c2nnc(-c2cccs2)c3=O)c1C	90 µM	90%	40%	90 µM	65%	45%	100 µM	95%	> 150 µM	80 µM	100 µM	130 µM	100%	90 µM	120 µM	60%	75%	100%	90%	50%	IC50 (Vero [17]): > 150 µM; inhibition of growth at 50 µg/mL (A549 [18]): 90%; IC50 (TOV112D [20]): > 150 µM; IC50 (T47D [22]): 80 µM; inhibition at 48 h, 50 ug/ml [23]: 55%; IC50 (T47D [26]): 80 µM; growth inhibition (GI) (Vero [27]): 25%; IC50 (Vero [28]): 140 µM; inhibition of growth at 50 µg/mL (TOV112D [29]): 75%; IC50 (HeLa [30]): 150 µM
Cc1ccccc1N1CCn2c1nnc(-c1cccs1)c2=O	90 µM	90%	90%	80 µM	75%	80%	80 µM	100%	100 µM	80 µM	90 µM	80 µM	90%	100 µM	110 µM	95%	90%	100%	80%	45%	IC50 (Vero [17]): > 160 µM; inhibition of growth at 50 µg/mL (A549 [18]): 100%; IC50 (TOV112D [20]): 90 µM; IC50 (T47D [22]): 80 µM; inhibition at 48 h, 50 ug/ml [23]: 50%; IC50 (T47D [26]): 90 µM; growth inhibition (GI) (Vero [27]): 25%; IC50 (Vero [28]): 160 µM; inhibition of growth at 50 µg/mL (TOV112D [29]): 100%; IC50 (HeLa [30]): > 160 µM
O=c1c(-c2ccco2)nnc2n1CCN2c1ccc(Cl)c(Cl)c1	–	–	–	–	50%	–	–	–	–	–	–	–	20%	–	–	–	95%	40%	10%	50%	–
O=c1c(-c2ccco2)nnc2n1CCN2c1ccccc1Cl	–	–	–	–	80%	–	–	–	–	–	–	–	15%	–	–	–	100%	25%	5%	80%	–

Source: ChEMBL document CHEMBL3596165, “Synthesis, structure elucidation and identification of antiproliferative activities of a novel class of thiophene bioisosteres bearing the privileged 7,8-dihydroimidazo[2,1-c][1,2,4]triazin-4(6H)-one scaffold” (Bioorg Med Chem, 2015)
